In ChEMBL document CHEMBL1250444, “Nitric oxide activates TRP channels by cysteine S-nitrosylation” (Nat Chem Biol, 2006):
Residue numbers refer to the chain shown, from its start. Calls of active or inactive are those of the source. The rule behind the calls is not given here.

Experiments:
[1] = molecular target: T1, Short transient receptor potential channel 5 (Homo sapiens) (UniProt Q9UL62); assay: Induction of S-nitrosylation of TRPC5 in HEK cells assessed as increase in Ca2+ level from extracellular space at 1 mM in presence of dithiothreitol; type: cell-based; conditions: HEK293
T1 sequence (whole entry): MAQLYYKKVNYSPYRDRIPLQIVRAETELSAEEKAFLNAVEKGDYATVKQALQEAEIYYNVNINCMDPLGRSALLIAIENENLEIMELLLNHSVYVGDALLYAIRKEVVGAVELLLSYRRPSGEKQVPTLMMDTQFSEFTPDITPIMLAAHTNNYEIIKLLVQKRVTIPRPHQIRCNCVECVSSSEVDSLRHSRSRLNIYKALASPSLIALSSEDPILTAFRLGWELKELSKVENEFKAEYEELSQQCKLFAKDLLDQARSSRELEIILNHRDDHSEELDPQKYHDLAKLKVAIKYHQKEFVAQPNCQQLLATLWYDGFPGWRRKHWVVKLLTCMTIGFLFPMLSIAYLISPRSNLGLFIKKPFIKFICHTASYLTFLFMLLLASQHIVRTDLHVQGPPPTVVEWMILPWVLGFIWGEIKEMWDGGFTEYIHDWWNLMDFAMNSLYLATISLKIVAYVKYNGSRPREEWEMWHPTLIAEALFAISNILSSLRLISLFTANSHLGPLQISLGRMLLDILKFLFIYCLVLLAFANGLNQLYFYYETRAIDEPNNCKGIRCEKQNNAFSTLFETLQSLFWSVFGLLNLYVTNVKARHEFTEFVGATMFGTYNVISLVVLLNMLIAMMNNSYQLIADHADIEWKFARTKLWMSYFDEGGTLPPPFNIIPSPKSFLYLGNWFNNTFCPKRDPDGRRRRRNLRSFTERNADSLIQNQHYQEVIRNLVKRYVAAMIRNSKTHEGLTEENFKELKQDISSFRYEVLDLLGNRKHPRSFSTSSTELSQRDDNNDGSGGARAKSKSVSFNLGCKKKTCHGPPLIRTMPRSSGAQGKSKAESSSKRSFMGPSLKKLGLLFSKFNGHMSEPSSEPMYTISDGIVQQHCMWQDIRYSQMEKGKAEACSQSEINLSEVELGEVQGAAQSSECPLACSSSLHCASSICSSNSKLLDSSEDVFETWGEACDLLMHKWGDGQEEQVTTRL

[2] = molecular target: T1, Short transient receptor potential channel 5 (Homo sapiens); assay: Induction of S-nitrosylation of TRPC5 in HEK cells assessed as inhibition of incorporation of DTNB-2Bio at 5 mM; type: cell-based; conditions: HEK293
[3] = system: T2, Short transient receptor potential channel 5 (Homo sapiens), Q9UL62 [C558S]; assay: Decrease in TRPC5 C558S mutant S-nitrosylation in HEK cells assessed as inhibition of incorporation of DTNB-2Bio at 300 uM relative to control; type: cell-based; conditions: HEK293
T2 sequence (whole entry): T1 sequence (whole entry) with C558S

[4] = molecular target: Transient receptor potential cation channel subfamily V member 4 (Homo sapiens) (UniProt Q9HBA0); assay: Activation of TRPV4 in HEK cells assessed as increase in Ca2+ level from extracellular space at 300 uM; type: cell-based; conditions: HEK293
HEK293 [5] = assay: Activation of rat TRPV1 Cys616 mutant expressed in HEK cells assessed as increase in Ca2+ level from extracellular space at 0.1 to 1 mM; type: cell-based
[6] = molecular target: T1, Short transient receptor potential channel 5 (Homo sapiens); assay: Induction of S-nitrosylation of TRPC5 in HEK cells assessed as increase in Ca2+ level from extracellular space at 30 uM; type: cell-based; conditions: HEK293
[7] = molecular target: Transient receptor potential cation channel subfamily M member 7 (Homo sapiens) (UniProt Q96QT4); assay: Induction of TRPM7 S-nitrosylation in HEK cells assessed as increase in Ca2+ level from extracellular space at 30 uM; type: cell-based; conditions: HEK293
[8] = molecular target: T1, Short transient receptor potential channel 5 (Homo sapiens); assay: Induction of S-nitrosylation of TRPC5 in HEK cells assessed as increase in Ca2+ level from extracellular space at 30 uM in presence of ascorbic acid; type: cell-based; conditions: HEK293
[9] = molecular target: T1, Short transient receptor potential channel 5 (Homo sapiens); assay: Induction of S-nitrosylation of TRPC5 in HEK cells assessed as increase in Ca2+ level from extracellular space at 30 uM in presence of dithiothreitol; type: cell-based; conditions: HEK293
[10] = molecular target: T1, Short transient receptor potential channel 5 (Homo sapiens); assay: Induction of TRPC5 S-nitrosylation in chicken DT40 cells assessed as increase in Ca2+ level from extracellular space at 30 uM in presence of PLC-beta inhibitor U73122; type: cell-based
[11] = molecular target: Transient receptor potential cation channel subfamily V member 4 (Homo sapiens) (UniProt Q9HBA0); assay: Activation of TRPV4 in HEK cells assessed as increase in Ca2+ level from extracellular space at 10 uM; type: cell-based; conditions: HEK293
HEK293 [12] = assay: Activation of rat TRPV1 Cys621 mutant expressed in HEK cells assessed as increase in Ca2+ level from extracellular space at 10 uM; type: cell-based
[13] = molecular target: T1, Short transient receptor potential channel 5 (Homo sapiens); assay: Activation of TRPC5 expressed in BAEC expressing dominant negative mutant of TRPC5 assessed as increase in Ca2+ level from extracellular space at 100 uM
[14] = molecular target: T1, Short transient receptor potential channel 5 (Homo sapiens); assay: Activation of TRPC5 expressed in BAEC expressing TRPC5 siRNA assessed as increase in Ca2+ level from extracellular space at 100 uM

Transient receptor potential cation channel subfamily V member 4 (Homo sapiens), sequence (Q9HBA0 whole entry): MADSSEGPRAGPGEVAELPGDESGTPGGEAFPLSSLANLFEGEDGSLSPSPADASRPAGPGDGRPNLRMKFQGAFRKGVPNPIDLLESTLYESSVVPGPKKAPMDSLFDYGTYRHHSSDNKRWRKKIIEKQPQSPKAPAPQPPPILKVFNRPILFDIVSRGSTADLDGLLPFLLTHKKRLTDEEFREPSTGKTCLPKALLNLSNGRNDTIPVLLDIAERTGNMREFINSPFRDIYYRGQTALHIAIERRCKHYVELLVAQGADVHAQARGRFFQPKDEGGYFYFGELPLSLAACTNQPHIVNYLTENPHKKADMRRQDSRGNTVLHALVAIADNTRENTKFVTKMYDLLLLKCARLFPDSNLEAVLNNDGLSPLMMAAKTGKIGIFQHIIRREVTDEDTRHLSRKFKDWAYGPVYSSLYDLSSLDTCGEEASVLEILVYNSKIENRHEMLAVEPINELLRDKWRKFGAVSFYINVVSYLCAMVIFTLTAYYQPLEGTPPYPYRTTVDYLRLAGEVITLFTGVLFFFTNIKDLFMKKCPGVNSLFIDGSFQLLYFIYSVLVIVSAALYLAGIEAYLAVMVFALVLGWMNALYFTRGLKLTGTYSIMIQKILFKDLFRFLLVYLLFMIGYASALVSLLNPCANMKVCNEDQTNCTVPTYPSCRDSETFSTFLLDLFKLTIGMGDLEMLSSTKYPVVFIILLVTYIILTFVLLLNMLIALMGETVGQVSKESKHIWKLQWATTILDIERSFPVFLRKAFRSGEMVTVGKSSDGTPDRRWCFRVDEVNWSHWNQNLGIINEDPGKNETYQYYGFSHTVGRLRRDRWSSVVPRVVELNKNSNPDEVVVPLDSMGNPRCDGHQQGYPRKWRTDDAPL
Transient receptor potential cation channel subfamily M member 7 (Homo sapiens), sequence (Q96QT4 whole entry): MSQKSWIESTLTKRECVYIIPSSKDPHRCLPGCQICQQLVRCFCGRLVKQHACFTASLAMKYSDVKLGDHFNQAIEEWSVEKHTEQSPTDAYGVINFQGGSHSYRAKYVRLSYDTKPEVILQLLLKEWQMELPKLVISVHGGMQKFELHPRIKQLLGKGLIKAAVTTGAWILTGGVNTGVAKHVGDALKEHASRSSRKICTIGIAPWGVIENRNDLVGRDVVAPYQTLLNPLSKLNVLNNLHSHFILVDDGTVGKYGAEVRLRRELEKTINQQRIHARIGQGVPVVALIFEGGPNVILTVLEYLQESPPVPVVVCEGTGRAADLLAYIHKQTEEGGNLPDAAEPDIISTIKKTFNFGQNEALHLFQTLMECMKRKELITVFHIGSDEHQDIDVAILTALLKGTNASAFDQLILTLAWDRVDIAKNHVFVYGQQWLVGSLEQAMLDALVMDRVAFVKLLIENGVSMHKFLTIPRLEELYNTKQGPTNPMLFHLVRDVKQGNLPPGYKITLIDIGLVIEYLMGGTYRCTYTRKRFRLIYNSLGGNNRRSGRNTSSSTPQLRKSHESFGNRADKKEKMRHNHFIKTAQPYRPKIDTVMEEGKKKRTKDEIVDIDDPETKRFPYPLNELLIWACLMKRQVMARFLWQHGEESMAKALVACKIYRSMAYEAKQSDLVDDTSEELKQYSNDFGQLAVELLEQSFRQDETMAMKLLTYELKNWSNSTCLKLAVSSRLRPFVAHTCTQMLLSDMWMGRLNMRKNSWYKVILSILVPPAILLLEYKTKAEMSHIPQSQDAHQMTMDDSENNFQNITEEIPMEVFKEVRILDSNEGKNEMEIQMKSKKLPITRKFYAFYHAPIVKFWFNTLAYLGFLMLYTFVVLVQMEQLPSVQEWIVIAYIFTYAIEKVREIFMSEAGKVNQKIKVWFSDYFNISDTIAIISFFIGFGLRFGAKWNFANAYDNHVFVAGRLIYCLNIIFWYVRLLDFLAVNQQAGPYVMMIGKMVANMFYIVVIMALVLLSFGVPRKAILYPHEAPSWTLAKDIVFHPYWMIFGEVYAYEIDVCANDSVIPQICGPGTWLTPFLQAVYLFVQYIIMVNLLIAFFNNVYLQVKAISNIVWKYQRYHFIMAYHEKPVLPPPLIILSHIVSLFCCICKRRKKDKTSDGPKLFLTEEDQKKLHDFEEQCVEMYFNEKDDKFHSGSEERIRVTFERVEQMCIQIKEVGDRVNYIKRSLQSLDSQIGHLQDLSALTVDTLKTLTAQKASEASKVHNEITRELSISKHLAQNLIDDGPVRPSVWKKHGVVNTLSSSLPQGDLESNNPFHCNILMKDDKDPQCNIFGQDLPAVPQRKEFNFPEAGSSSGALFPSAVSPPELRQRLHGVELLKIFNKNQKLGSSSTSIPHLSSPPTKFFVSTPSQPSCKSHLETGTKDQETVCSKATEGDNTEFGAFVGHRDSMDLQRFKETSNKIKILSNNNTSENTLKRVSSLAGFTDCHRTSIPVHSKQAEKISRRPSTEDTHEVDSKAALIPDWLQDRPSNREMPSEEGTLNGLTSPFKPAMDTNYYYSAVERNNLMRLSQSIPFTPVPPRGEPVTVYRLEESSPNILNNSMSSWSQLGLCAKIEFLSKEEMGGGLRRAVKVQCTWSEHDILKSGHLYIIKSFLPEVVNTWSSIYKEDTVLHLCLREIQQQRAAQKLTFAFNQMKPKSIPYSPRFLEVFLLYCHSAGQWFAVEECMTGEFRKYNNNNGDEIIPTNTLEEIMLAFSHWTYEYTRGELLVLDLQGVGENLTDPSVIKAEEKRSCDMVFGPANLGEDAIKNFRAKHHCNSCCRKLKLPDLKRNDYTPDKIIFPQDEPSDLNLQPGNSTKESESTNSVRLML

| SMILES | Activity [1] | Activity [2] | Activity [3] | Activity [4] | Activity (HEK293 [5]) | Activity [6] | Activity [7] | Activity [8] | Activity [9] | Activity [10] | Activity [11] | Activity (HEK293 [12]) | Activity [13] | Activity [14] |
| --- | --- | --- | --- | --- | --- | --- | --- | --- | --- | --- | --- | --- | --- | --- |
| CC(=O)N[C@@H](C(=O)O)C(C)(C)SN=O (racemic) | inactive | Active | Active | Active | inactive | – | – | – | – | – | – | – | – | – |
| O=[N+]([O-])c1ccc(SSc2ccc([N+](=O)[O-])cn2)nc1 | – | – | – | – | – | Active | inactive | Active | inactive | Active | Active | inactive | inactive | inactive |
